pIC50: −log10 of the molar value.
Key:
[1] = Demonstration of CNS penetration, brain and plasma levels in mice; assay type: in vivo; details: mouse, oral, mice (C57), 100 mg/kg orally, samples at 2, 4 and 8 h, read-out: % ratio of brain to plasma concentration
Experimental: In-vivo Study: A total number of 24 mice (C57) were dosed orally at 100 mg/kg of drug compound in 10% propylene glycol, 7.5% ethanol and 82.5% solutol. At designated times (2, 4 and 8 his), a group of eight mice were sacrificed, and plasma and brain tissue samples were collected by following the NIH guideline.
Bioanalytical: Plasma samples were prepared as follows. Two hundred microliters of acetonitrile containing internal standard was added to 100 μL of plasma to precipitate proteins. After vortexing, samples were centrifuged at 10000 g for 10 min and supernatants were transferred to HPLC sample vials for analysis by LC-MS-MS. Calibration standards were prepared by adding appropriate volumes of drug stock solution directly into blank plasma (from untreated animals) and processed identically to collected plasma samples.
Brain tissues were first homogenized in two-volume of PBS buffer (e.g. 100 mg tissue in 200 μL PBS). Two hundred microliters of acetonitrile containing internal standard was added to 100 μL of tissue homogenants to precipitate proteins. Three replicates were processed for each tissue homogenant. After vortexing, samples were centrifuged at 10000 g for 10 min and supernatants were transferred to HPLC sample vials for analysis by LC-MS-MS. […]

[2] = target: T1, Cyclooxygenase-2 (Cox-2) (Ovis aries, UniProt P79208); experiment: Colorimetric Cox inhibitor screening assay (Cayman), Cox-2; assay type: biochemical
T1 construct: purchased Cayman Chemical Company 760111
T1 sequence (P79208 17-603): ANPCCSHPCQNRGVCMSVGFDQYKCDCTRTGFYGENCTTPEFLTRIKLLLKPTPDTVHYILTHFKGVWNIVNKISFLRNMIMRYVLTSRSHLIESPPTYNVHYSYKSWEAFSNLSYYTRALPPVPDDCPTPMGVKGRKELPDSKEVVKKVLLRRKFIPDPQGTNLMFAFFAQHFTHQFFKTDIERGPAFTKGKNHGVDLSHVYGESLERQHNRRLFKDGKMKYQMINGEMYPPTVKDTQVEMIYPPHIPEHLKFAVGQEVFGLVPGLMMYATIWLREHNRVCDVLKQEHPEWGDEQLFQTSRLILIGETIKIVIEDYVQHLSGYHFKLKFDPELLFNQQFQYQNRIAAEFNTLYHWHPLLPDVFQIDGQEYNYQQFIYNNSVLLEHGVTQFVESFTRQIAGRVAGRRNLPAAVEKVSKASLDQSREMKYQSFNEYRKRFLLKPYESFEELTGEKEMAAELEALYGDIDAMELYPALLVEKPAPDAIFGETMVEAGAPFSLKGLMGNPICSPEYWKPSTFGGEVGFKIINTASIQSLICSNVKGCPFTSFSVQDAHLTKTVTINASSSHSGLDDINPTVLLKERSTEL
Experimental: (§1) Determination of the Effect of the Compounds According to the Invention on Cyclooxygenase-1 and Cyclooxygenase-2 (Cox-1, Cox-2)
(§2) Inhibition of Cox-1 and Cox-2 was determined using the Colorimetric Cox inhibitor screening assay provided by Cayman Chemical Company, Ann Arbor, Mich., USA. (Cat. No. 760111) according to manufacturer's instructions.

[3] = tested on: γ-secretase activity; experiment: Screening for γ-secretase-modulating activity in SKN neuroblastoma cells carrying APP swedish mutant; assay type: cell-based; details: read-out: IC50 on the γ-secretase activity, Activity range
Experimental: Screening was carried out using SKN neuroblastoma cells carrying the APP-“swedish mutant” (point mutations at position 595 and 596, numbering based on APP695) grown in DMEM/NUT-mix F12 (HAM) provided by Gibco (cat no. 31330-38) containing 5% Serum/Fe supplemented with 1% non-essential amino acids, 100 U/ml Pen/Strep.
Cells were grown to near confluency.
The screening was performed using the assay as described in Citron et al (1997) Nature Medicine 3: 67.
IC50-Values of Selected Compounds of the Invention on the γ-Secretase Activity.

[4] = target: T2, Cyclooxygenase-1 (Cox-1) (Ovis aries, UniProt P05979); experiment: Colorimetric Cox inhibitor screening assay (Cayman), Cox-1; assay type: biochemical
T2 construct: purchased Cayman Chemical Company 760111
T2 sequence (P05979 25-600): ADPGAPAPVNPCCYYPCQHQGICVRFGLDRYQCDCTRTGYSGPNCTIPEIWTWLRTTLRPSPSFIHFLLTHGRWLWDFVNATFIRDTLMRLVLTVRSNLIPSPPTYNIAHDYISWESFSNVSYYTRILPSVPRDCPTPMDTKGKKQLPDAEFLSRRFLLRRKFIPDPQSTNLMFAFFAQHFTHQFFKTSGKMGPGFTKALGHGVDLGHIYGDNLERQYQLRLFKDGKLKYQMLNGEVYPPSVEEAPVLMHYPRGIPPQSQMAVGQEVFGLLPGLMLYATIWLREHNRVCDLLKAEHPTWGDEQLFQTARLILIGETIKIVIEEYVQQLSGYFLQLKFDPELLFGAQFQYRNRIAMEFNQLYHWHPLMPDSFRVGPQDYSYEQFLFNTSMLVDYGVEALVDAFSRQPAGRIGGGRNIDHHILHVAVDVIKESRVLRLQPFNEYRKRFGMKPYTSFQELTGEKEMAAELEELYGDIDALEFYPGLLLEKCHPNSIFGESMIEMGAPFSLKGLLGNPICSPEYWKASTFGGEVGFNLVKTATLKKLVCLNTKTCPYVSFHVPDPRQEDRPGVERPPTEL
Experimental: as §1, §2

SMILES	Kp [1]	inhibition at 100 µM [2]	pIC50 [3]	inhibition at 100 µM [4]
CCC[C@@H](C(=O)O)c1cc(OCc2ccccc2)cc(-c2ccc(C(F)(F)F)cc2)c1 (single isomer, unassigned) [LXIV]	0.286	–	–	–
CCC[C@H](C(=O)O)c1cc(OCc2ccccc2)cc(-c2ccc(C(F)(F)F)cc2)c1 (single isomer, unassigned) [LXV]	0.32	–	–	–
O=C(O)Cc1cc(OCC2CCCCC2)cc(-c2ccc(C(F)(F)F)cc2)c1 [V, (5-Cyclohexylmethoxy-4′-trifluoromethyl-biphenyl-3-yl)-acetic acid]	–	< 50%	> 6.00	< 50%

Second part, the compound after the results:

Kp [1]	inhibition at 100 µM [2]	pIC50 [3]	inhibition at 100 µM [4]	SMILES
–	< 50%	5.00 to 6.00	< 50%	CC(C(=O)O)c1cc(OCc2ccccc2)cc(-c2ccc(C(F)(F)F)cc2)c1 (centres unmarked) [XIX, 2-(5-Benzyloxy-4′-trifluoromethyl-biphenyl-3-yl)-propionic acid]
–	< 50%	5.00 to 6.00	< 50%	O=C(O)Cc1cc(OCc2ccccc2)cc(-c2ccc(OC(F)(F)F)cc2)c1 [XIII, (5-Benzyloxy-4′-trifluoromethoxy-biphenyl-3-yl)-acetic acid]

Reference: patent US7825160B2, “(Biphenyl) carboxylic acids and derivatives thereof” (Cellzome Limited, priority 2004, dated 2010)
